Like-named read-outs stand apart in the source and are kept apart here.
Legend:
[1] = tested on: dairy cows; details: single injection 5.6 mg at dry-off, cited from earlier work
[2] = tested on: goats; details: single injection 5.6 mg at dry-off; cited from earlier work
[3] = tested on: cows (Holstein Friesians); details: for Milk yield Last milking: before administration; for % reduction after 24 h / % reduction after 48 h / % reduction after 72 h / % reduction after 96 h: vs milk yield before treatment
Description: Twelve cows (Holstein Friesians) from 1 farm were used. The start of the dry period of every cow was between 40 to 60 days before calving. The cows were milked twice a day at fixed times and the cows were selected on a milk production of >12.5 litres/day 24 hours before PTSO administering took place. No extra measures were taken to stimulate dry-off, such as changes in feed ration or changes in milking frequency. The cows were milked twice a day. The cows were housed in free stables. A porcine gelatine capsule with PTSO or placebo gel capsule with water were administered 7 to 14 days before the start of the dry-off period.
For this study various dosages synthetic PTSO (>98% purity) were administered to cows with a milk yield of at least 12.5 kg milk per day. The following dosages were applied: 0, 10, 20, 40 ml of pure PTSO. For each dosage 3 cows were used.
Before the various dosages were administered the milk yield was monitored for 14 days. The gel capsules were orally administered by a bolus shooter, the gel capsule for the placebo group contained tap water. Administering of a capsule took place between the morning and afternoon milking. On t=14 days the PTSO-containing capsules and the placebo capsules were administered and the milk yield was monitored 48 hours more.

[4] = tested on: cows (Holstein Friesians); assay: Treatment with DPD analogs (organosulfur compounds) and milk yield (Example 8); type: in vivo, cow
Description: Study design. 36 cows (Holstein Friesians) from 2 farms were used. The feed of the cows was composed of TMR, including corn and grass silage, supplemented with soya and minerals. […] The cows were milked in a milk robot. […] The cows were milked twice a day. The cows were housed in free stables. […] Placebo treatment corresponded to administration of two gel capsules containing 180 ml water.
For this study dosages synthetic compounds (>96% purity) as indicated in table 17 were administered to cows. The objective of this study was to compare the activity of a corresponding dose of the compounds expressed in mol, based on the number of moles that is present in 80 ml di-n-propyl disulfide at 20° C. The number of moles was converted to ml or grams of the tested compounds. For this purpose, the molecular weight and specific density were used in the calculations. The compounds were formulated in the gel capsules as indicated in the previous examples.
Before the various dosages were administered, the milk yields were monitored for at least 5 days.

[5] = tested on: cows; details: cited from earlier work
[6] = individual cows, dose per compound as listed in E284
[7] = vs milk yield before treatment, individual cows, dose per compound as listed in E284

C=CCN1C[C@H](C(=O)N(CCCN(C)C)C(=O)NCC)C[C@@H]2c3cccc4[nH]cc(c34)C[C@H]21 [cabergoline]
duration of reduced prolactin after dry-off [1]: up to 8 days
milk reduction ([1]; dairy cows): 22%
milk reduction [2]: 28%

CCCSS(=O)(=O)CCC [PTSO, di-n-propyl thiosulfonate]
Average reduction 24 and 48 h (%) ([3]; 10 ml PTSO): −5%
Milk yield After 24 h ([3]; 10 ml PTSO): 19.89 kg
Milk yield After 48 h ([3]; 10 ml PTSO): 19.51 kg
Milk yield After 72 h ([3]; 10 ml PTSO): 18.94 kg
Milk yield After 96 h ([3]; 10 ml PTSO): 18.67 kg
Milk yield Last milking ([3]; 10 ml PTSO): 18.76 kg
% reduction after 24 h ([3]; 10 ml PTSO): −6%
% reduction after 48 h ([3]; 10 ml PTSO): −4%
% reduction after 72 h ([3]; 10 ml PTSO): −0.03%
% reduction after 96 h ([3]; 10 ml PTSO): 0.01%
Average reduction 24 and 48 h (%) ([3]; 20 ml PTSO): 66%
Milk yield After 24 h ([3]; 20 ml PTSO): 7.7 kg
Milk yield After 48 h ([3]; 20 ml PTSO): 4.56 kg
Milk yield After 72 h ([3]; 20 ml PTSO): 9.31 kg
Milk yield After 96 h ([3]; 20 ml PTSO): 14.99 kg
effect on milk yield compared to the milk yield before treatment ([3]; 20 ml PTSO): clear lowering on milk yield
Milk yield Last milking ([3]; 20 ml PTSO): 15.72 kg
% reduction after 24 h ([3]; 20 ml PTSO): 61%
% reduction after 48 h ([3]; 20 ml PTSO): 71%
% reduction after 72 h ([3]; 20 ml PTSO): 41%
% reduction after 96 h ([3]; 20 ml PTSO): 4.7%
Average reduction 24 and 48 h (%) ([3]; 40 ml PTSO): 55%
Milk yield After 24 h ([3]; 40 ml PTSO): 8.89 kg
Milk yield After 48 h ([3]; 40 ml PTSO): 7.04 kg
Milk yield After 72 h ([3]; 40 ml PTSO): 9.06 kg
Milk yield After 96 h ([3]; 40 ml PTSO): 15.87 kg
Milk yield Last milking ([3]; 40 ml PTSO): 16.77 kg
% reduction after 24 h ([3]; 40 ml PTSO): 52%
% reduction after 48 h ([3]; 40 ml PTSO): 58%
% reduction after 72 h ([3]; 40 ml PTSO): 46%
% reduction after 96 h ([3]; 40 ml PTSO): 5.4%
time to complete recovery of milk yield ([3]; after PTSO administration): 3 to 4 days
damage to the udder ([3]; bovine, in vivo): does not cause any damage to the udder
dosage at which the effect on milk yield became visible ([3]; single oral dose): ≥ 20 mL
dosage giving maximum response (milk yield decrease) ([3]; single oral dose): ≥ 20 mL
% reduction after 24 h average (milk yield) ([4]; 24 h after one oral gel capsule, dose equimolar to 80 ml di-n-propyl disulfide, negative value = increase in yield): 61%
% reduction after 48 h average (milk yield) ([4]; 48 h after one oral gel capsule, dose equimolar to 80 ml di-n-propyl disulfide, negative value = increase in yield): 71%
% reduction after 72 h average (milk yield) ([4]; 72 h after one oral gel capsule, dose equimolar to 80 ml di-n-propyl disulfide, negative value = increase in yield): 41%
% reduction after 96 h average (milk yield) ([4]; 96 h after one oral gel capsule, dose equimolar to 80 ml di-n-propyl disulfide, negative value = increase in yield): 4.7%
average reduction after 24, 48 and 72 h (%) (milk yield) ([4]; average of 24, 48 and 72 h after one oral gel capsule, dose equimolar to 80 ml di-n-propyl disulfide): 58%
Average reduction after 24 and 48 h (%) (milk yield) ([4]; average of 24 and 48 h after one oral gel capsule, dose equimolar to 80 ml di-n-propyl disulfide): 66%
Milk yield (kg) Last milking ([4]; before administration, individual cows, single oral gel capsule dose per cow (ml unless g): diethyl disulfide 63, di-n-propyl disulfide 80, diisopropyl disulfide 160, di-n-butyl disulfide 100, dibenzyl disulfide 102, diethyl sulfide 55, di-n-propyl sulfide 72, diisopropyl sulfide 74, di-n-butyl sulfide 90, dibenzyl sulfide 96 g, diphenyl sulfide 85, di-n-propyl trisulfide 98, di-n-propyl sulfone 6): 15.7 kg
Average reduction after 24 and 48 h (%) [4, 6]: 66%
Milk yield (kg) After 24 h [4, 6]: 7.7 kg
Milk yield (kg) After 48 h [4, 6]: 4.6 kg
Milk yield (kg) After 72 h [4, 6]: 9.3 kg
Milk yield (kg) After 96 h [4, 6]: 14.5 kg
average reduction after 24, 48 and 72 h (%) [4, 6]: 58%
% reduction after 24 h [4, 7]: 61%
% reduction after 48 h [4, 7]: 71%
% reduction after 72 h [4, 7]: 41%
% reduction after 96 h [4, 7]: 4.7%

CCCN1CC(NS(=O)(=O)N(CC)CC)CC2Cc3c(O)cccc3CC21 (stereo not shown) [quinagolide]
lower milk production compared with the placebo group ([5]; 1 mg daily i.m. during 9 weeks, early lactation, last 4 weeks of treatment): 5.3 kg/day
Milk production ([5]; 4 mg i.m. twice a day from 5 days before until 13 days after dry-off, placebo 25 kg/day): 18 kg/day
decreased milk production compared with the placebo group ([5]; Ollier, Zhao and Lacasse (2014)): 7 L
